From patent publication US20200030355A1, “COMBINATION THERAPY FOR TREATING CANCER” (Epizyme, Inc., priority 2014, published 2020)
Where a name gives a salt, the structure may show the parent alone.

Tested on: MOLM-13 cells
Experiment: EPZ-5676 300 nM 7-day pre-treatment, then second compound 72 hours, ATPLite, IC50 shift (Example 6)
Assay type: cell-based, human
Conditions: 300 nM EPZ-5676 or DMSO 7-day pre-treatment, then 2nd compound 72 hours, Synergy = IC50 of 2nd compound decreased by 2-fold or more vs DMSO control
Procedure: Cells were then equilibrated in incubators for 24 hours before treatment with a second compound. Treated assay plates were incubated with a second compound for 72 hours. After this time, plates were developed for endpoint analysis using ATPLite to measure ATP content, which is used as an indicator of cell viability.
“N/D” means that IC50 of the second compound could not be determined for both conditions.

| Compound | MOLM-13 (summary of combination study: EPZ-5676 + 2nd compound) |
| --- | --- |
| N.N.[Cl][Pt][Cl] [Cisplatin] | Synergy (considered synergistic if the IC50 value of the second compound decreased by 2-fold or more when EPZ-5676 was added as compared to the DMSO control) |
| Cc1ccc2nc(NCCN)c3ncc(C)n3c2c1 [BMS 345541] | Synergy (considered synergistic if the IC50 value of the second compound decreased by 2-fold or more when EPZ-5676 was added as compared to the DMSO control) |
| CO[C@H]1C[C@@H]2CC[C@@H](C)[C@@](O)(O2)C(=O)C(=O)N2CCCC[C@H]2C(=O)O[C@H]([C@H](C)C[C@@H]2CC[C@@H](OCCO)[C@H](OC)C2)CC(=O)[C@H](C)/C=C(\C)[C@@H](O)[C@@H](OC)C(=O)[C@H](C)C[C@H](C)/C=C/C=C/C=C/1C [Everolimus] | Synergy (considered synergistic if the IC50 value of the second compound decreased by 2-fold or more when EPZ-5676 was added as compared to the DMSO control) |
| Cc1cccc(CC(=O)N2CCc3c2ccc(-c2cn(C)c4ncnc(N)c24)c3F)n1 [GSK2656157] | Synergy (considered synergistic if the IC50 value of the second compound decreased by 2-fold or more when EPZ-5676 was added as compared to the DMSO control) |
| Cc1cnc(NC(=O)Nc2cc(Br)c(C)cc2OC[C@@H]2CNCCO2)cn1 [LY2603618] | Synergy (considered synergistic if the IC50 value of the second compound decreased by 2-fold or more when EPZ-5676 was added as compared to the DMSO control) |
| CCS(=O)(=O)N1CC(CC#N)(n2cc(-c3ncnc4[nH]ccc34)cn2)C1 [Baricitinib] | Synergy (considered synergistic if the IC50 value of the second compound decreased by 2-fold or more when EPZ-5676 was added as compared to the DMSO control) |
| Cc1coc2c1C(=O)C(=O)c1c-2ccc2c1CCCC2(C)C [TANSHINONE IIA] | Synergy (considered synergistic if the IC50 value of the second compound decreased by 2-fold or more when EPZ-5676 was added as compared to the DMSO control) |
| COc1ccc(C2=N[C@@H](c3ccc(Cl)cc3)[C@@H](c3ccc(Cl)cc3)N2C(=O)N2CCNC(=O)C2)c(OC(C)C)c1 [Nutlin-3] | Synergy (considered synergistic if the IC50 value of the second compound decreased by 2-fold or more when EPZ-5676 was added as compared to the DMSO control) |
| CS(=O)(=O)CCNCc1ccc(-c2ccc3ncnc(Nc4ccc(OCc5cccc(F)c5)c(Cl)c4)c3c2)o1 [Lapatinib] | Synergy (considered synergistic if the IC50 value of the second compound decreased by 2-fold or more when EPZ-5676 was added as compared to the DMSO control) |
| CC[C@@]1(O)C(=O)OCc2c1cc1n(c2=O)Cc2cc3c(CN(C)C)c(O)ccc3nc2-1 [Topotecan Hydrochloride] | Synergy (considered synergistic if the IC50 value of the second compound decreased by 2-fold or more when EPZ-5676 was added as compared to the DMSO control) |
| CCc1c2c(nc3ccc(OC(=O)N4CCC(N5CCCCC5)CC4)cc13)-c1cc3c(c(=O)n1C2)COC(=O)[C@]3(O)CC [Irinotecan Hydrochloride] | Synergy (considered synergistic if the IC50 value of the second compound decreased by 2-fold or more when EPZ-5676 was added as compared to the DMSO control) |
| Cc1cccc(-c2[nH]c(C(C)(C)C)nc2-c2ccc3c(c2)OCO3)n1 [SB-505124] | Synergy (considered synergistic if the IC50 value of the second compound decreased by 2-fold or more when EPZ-5676 was added as compared to the DMSO control) |
| CC1=C(/C=C/C(C)=C\C=C\C(C)=C\C(=O)O)C(C)(C)CCC1 [Alitretinoin] | Synergy (considered synergistic if the IC50 value of the second compound decreased by 2-fold or more when EPZ-5676 was added as compared to the DMSO control) |
| COc1cc([C@@H]2c3cc4c(cc3[C@@H](O[C@@H]3O[C@@H]5CO[C@@H](C)O[C@H]5[C@H](O)[C@H]3O)[C@H]3COC(=O)[C@H]23)OCO4)cc(OC)c1O [Etoposide] | Synergy (considered synergistic if the IC50 value of the second compound decreased by 2-fold or more when EPZ-5676 was added as compared to the DMSO control) |
| Clc1ccc(C2(c3ccc(-c4cn[nH]c4)cc3)CCNCC2)cc1 [AT7867] | Synergy (considered synergistic if the IC50 value of the second compound decreased by 2-fold or more when EPZ-5676 was added as compared to the DMSO control) |
| Nc1cccc2c1C(=O)N(C1CCC(=O)NC1=O)C2=O (stereo not drawn) [Pomalidomide] | Synergy (considered synergistic if the IC50 value of the second compound decreased by 2-fold or more when EPZ-5676 was added as compared to the DMSO control) |
| Cn1c2ccccc2c2c3c(c4c5ccccc5n(CCC#N)c4c21)CNC3=O [Go 6976] | Synergy (considered synergistic if the IC50 value of the second compound decreased by 2-fold or more when EPZ-5676 was added as compared to the DMSO control) |
| CC[C@H](Nc1ncnc2[nH]cnc12)c1nc2cccc(F)c2c(=O)n1-c1ccccc1 [CAL-101] | Synergy (considered synergistic if the IC50 value of the second compound decreased by 2-fold or more when EPZ-5676 was added as compared to the DMSO control) |
| CC(C)(C)c1nc(-c2cccc(NS(=O)(=O)c3c(F)cccc3F)c2F)c(-c2ccnc(N)n2)s1 [Dabrafenib] | Synergy (considered synergistic if the IC50 value of the second compound decreased by 2-fold or more when EPZ-5676 was added as compared to the DMSO control) |
| CC(=O)O/N=C1\C(=O)N(Cc2cc(Cl)ccc2Cl)c2ccc(Cl)cc21 [LDN 57444] | Synergy (considered synergistic if the IC50 value of the second compound decreased by 2-fold or more when EPZ-5676 was added as compared to the DMSO control) |
| CC1=CC(=O)c2ccccc2C1=O [Menadione] | Synergy (considered synergistic if the IC50 value of the second compound decreased by 2-fold or more when EPZ-5676 was added as compared to the DMSO control) |
| O=C(c1ccc(OCCN2CCCCC2)cc1)c1c(-c2ccc(O)cc2)sc2cc(O)ccc12 [Raloxifene Hydrochloride] | Synergy (considered synergistic if the IC50 value of the second compound decreased by 2-fold or more when EPZ-5676 was added as compared to the DMSO control) |
| CO[C@H]1C[C@@H]2CC[C@@H](C)[C@@](O)(O2)C(=O)C(=O)N2CCCC[C@H]2C(=O)O[C@H]([C@H](C)C[C@@H]2CC[C@@H](OC(=O)C(C)(CO)CO)[C@H](OC)C2)CC(=O)[C@H](C)/C=C(\C)[C@@H](O)[C@@H](OC)C(=O)[C@H](C)C[C@H](C)/C=C/C=C/C=C/1C [Temsirolimus] | Synergy (considered synergistic if the IC50 value of the second compound decreased by 2-fold or more when EPZ-5676 was added as compared to the DMSO control) |
| O=C(c1cc(Cc2n[nH]c(=O)c3ccccc23)ccc1F)N1CCN(C(=O)C2CC2)CC1 [Olaparib] | Synergy (considered synergistic if the IC50 value of the second compound decreased by 2-fold or more when EPZ-5676 was added as compared to the DMSO control) |
